US20260007634A1, “PHARMACEUTICAL COMPOSITIONS FOR THE TREATMENT OF ALLERGIC DISEASES” (KINKI UNIVERSITY, priority 2022, published 2026)

What was measured:
Format in all cases: in vivo, mouse
IgE antibody [1] = assay: Serum IgE antibody ELISA, allergic rhinitis mice; conditions: OVA allergic rhinitis; serum day 28; oral 10 mg/kg (dexamethasone 2 mg/kg); control 58, vehicle 111
Method: (§1) A 0.2 mL dose of 50 μg ovalbumin (OVA) and 2 mg Alum mixture was administered to 6-week-old female Balb/c mice (Japan SLC Inc.) (day 0 of the example). Alum was used as an adjuvant. Seven days later and 14 days later, the Balb/c mice were immunized again with 0.2 mL injections of the above mixture. Starting on day 20, mice were orally treated with 10 mg/kg of norathyriol, 10 mg/kg of mangiferin 8a, 10 mg/kg of tofacitinib (JAK inhibitor), 2 mg/kg of dexamethasone (steroid) and 10 mg/kg of olopatadine (antihistamine) daily for 8 consecutive days. Starting on day 21, 400 μg OVA was administered intranasally, and nose-scratching behavior was measured on day 27. Note that tofacitinib, dexamethasone, and olopatadine are currently in clinical use in allergic rhinitis and were used as control drugs in this example.
Serum was collected from day 28 mice in Examples 6 and 7, and IgE antibody production was measured by enzyme-linked immunosorbent assay (ELISA). This assay was performed using a mouse IgE antibody ELISA kit (R&D).

IL-17 [2] = assay: Serum IL-17 ELISA, allergic rhinitis mice; conditions: OVA allergic rhinitis; serum day 28; oral 10 mg/kg (dexamethasone 2 mg/kg); control 204, vehicle 945
Method: as §1
Serum was collected from day 28 mice in Examples 6 and 7, and IL-17 production was measured by enzyme-linked immunosorbent assay (ELISA). This assay was performed using a mouse IL-17 ELISA kit (R&D).

IL-17 [3] = assay: Serum IL-17 ELISA, bronchial asthma mice; conditions: OVA bronchial asthma; serum day 28; oral 10 mg/kg (dexamethasone 2 mg/kg); control 80, vehicle 898
Method: as §1, with “cough” for “nose-scratching behavior”
Serum was collected from day 28 mice in Examples 14, and IL-17 production was measured by enzyme-linked immunosorbent assay (ELISA). This assay was performed using a mouse IL-17 ELISA kit (R&D).

IL-4 = assay: Serum IL-4 ELISA, food allergy mice; conditions: OVA food allergy; serum day 28; oral 10 mg/kg (dexamethasone 2 mg/kg); control 210, vehicle 1154
Method: (§2) A 0.2 mL dose of 10 μg ovalbumin (OVA) and 1 mg Alum mixture was administered to 6-week-old female Balb/c mice (Japan SLC Inc.) (day 0 of the example). Alum was used as an adjuvant. Seven days later, the Balb/c mice were immunized again with a 0.2 mL injection of the above mixture. Starting on day 14, mice were orally treated with 10 mg/kg of norathyriol, 10 mg/kg of mangiferin 8a, 10 mg/kg of tofacitinib (JAK inhibitor), 2 mg/kg of dexamethasone (steroid) and 10 mg/kg of olopatadine (antihistamine) daily for 14 consecutive days. Starting on day 14, 10 mg OVA was administered orally every other day […], and the frequency of diarrhea was measured after the final administration on day 28. Note that tofacitinib, dexamethasone, and olopatadine are currently in clinical use in food allergy and were used as control drugs in this example.
Serum was collected from day 28 mice in Examples 21, and IL-4 production was measured by enzyme-linked immunosorbent assay (ELISA). This assay was performed using a mouse IL-4 ELISA kit (R&D).

IL-17 [4] = assay: Serum IL-17 ELISA, food allergy mice; conditions: OVA food allergy; serum day 28; oral 10 mg/kg (dexamethasone 2 mg/kg); control 98, vehicle 875
Method: as §2
Serum was collected from day 28 mice in Examples 21, and IL-17 production was measured by enzyme-linked immunosorbent assay (ELISA). This assay was performed using a mouse IL-17 ELISA kit (R&D).

IgE antibody [5] = assay: Serum IgE antibody ELISA, cedar pollinosis mice; conditions: serum day 28, oral 10 mg/kg (dexamethasone 2 mg/kg), control 71, vehicle 207
Method: as §1, with “of 100” for “of 50”, “μg cedar pollen” for “μg ovalbumin (OVA)”, “and 1” for “and 2”, “21, 500” for “21, 400”, “μg cedar pollen” for “μg OVA”, “in cedar pollinosis” for “in allergic rhinitis”
Serum was collected from day 28 mice in Examples 28 and 29, and IgE antibody production was measured by enzyme-linked immunosorbent assay (ELISA). This assay was performed using a mouse IgE antibody ELISA kit (R&D).

IL-5 = assay: Serum IL-5 ELISA, cedar pollinosis mice; conditions: serum day 28, oral 10 mg/kg (dexamethasone 2 mg/kg), control 77, vehicle 708
Method: as §1, with “of 100” for “of 50”, “μg cedar pollen” for “μg ovalbumin (OVA)”, “and 1” for “and 2”, “21, 500” for “21, 400”, “μg cedar pollen” for “μg OVA”, “in cedar pollinosis” for “in allergic rhinitis”
Serum was collected from day 28 mice in Examples 28 and 29, and IL-5 production was measured by enzyme-linked immunosorbent assay (ELISA). This assay was performed using a mouse IL-5 ELISA kit (R&D).

IL-17 [6] = assay: Serum IL-17 ELISA, cedar pollinosis mice; conditions: serum day 28, oral 10 mg/kg (dexamethasone 2 mg/kg), control 18, vehicle 397
Method: as §1, with “of 100” for “of 50”, “μg cedar pollen” for “μg ovalbumin (OVA)”, “and 1” for “and 2”, “21, 500” for “21, 400”, “μg cedar pollen” for “μg OVA”, “in cedar pollinosis” for “in allergic rhinitis”
Serum was collected from day 28 mice in Examples 28 and 29, and IL-17 production was measured by enzyme-linked immunosorbent assay (ELISA). This assay was performed using a mouse IL-17 ELISA kit (R&D).

[7] = system: Balb/c mice with cedar pollinosis; assay: Nose scratching behavior, cedar pollinosis model mice; conditions: oral daily 8 days from day 20, 10 mg/kg (dexamethasone 2 mg/kg), measured day 27, vs vehicle group
Method: as §1, with “of 100” for “of 50”, “μg cedar pollen” for “μg ovalbumin (OVA)”, “and 1” for “and 2”, “21, 500” for “21, 400”, “μg cedar pollen” for “μg OVA”, “in cedar pollinosis” for “in allergic rhinitis”
The group that was just immunized with cedar pollen is called the subject group, the one that received norathyriol is called the norathyriol group, the one that received mangiferin 8a is called the mangiferin 8a group, the one that received tofacitinib is called the tofacitinib group, the one that received dexamethasone is called the dexamethasone group, and the one that received olopatadine is called the olopatadine group. Each group consisted of five animals.

| SMILES | amount of IgE antibody (IgE antibody [1]) | amount of IL-17 (IL-17 [2]) | amount of IL-17 (IL-17 [3]) | amount of IL-4 (IL-4) | amount of IL-17 (IL-17 [4]) | amount of IgE antibody (IgE antibody [5]) | amount of IL-5 (IL-5) | amount of IL-17 (IL-17 [6]) | number of nose scratches [7] |
| --- | --- | --- | --- | --- | --- | --- | --- | --- | --- |
| C[C@@H]1C[C@H]2[C@@H]3CCC4=CC(=O)C=C[C@]4(C)[C@@]3(F)[C@@H](O)C[C@]2(C)[C@@]1(O)C(=O)CO [dexamethasone] | 40 ng/mL | 227 pg/mL | 257 pg/mL | 415 pg/mL | 216 pg/mL | 154 ng/mL | 182 pg/mL | 49 pg/mL | – |
| O=c1c2cc(O)c(O)cc2oc2cc(O)cc(O)c12 [norathyriol, 1,3,6,7-tetrahydroxyxanthone] | 77 ng/mL | 583 pg/mL | 530 pg/mL | 694 pg/mL | 451 pg/mL | 156 ng/mL | 307 pg/mL | 195 pg/mL | significantly decreased the number of nose scratches |
| CN(C)CC/C=C1/c2ccccc2COc2ccc(CC(=O)O)cc21 [olopatadine] | 118 ng/mL | 839 pg/mL | 848 pg/mL | 1054 pg/mL | 721 pg/mL | 218 ng/mL | 438 pg/mL | 172 pg/mL | significantly decreased the number of nose scratches |
| C[C@@H]1CCN(C(=O)CC#N)C[C@@H]1N(C)c1ncnc2[nH]ccc12 [tofacitinib] | 94 ng/mL | 892 pg/mL | 844 pg/mL | 1015 pg/mL | 741 pg/mL | 185 ng/mL | 428 pg/mL | 244 pg/mL | significantly decreased the number of nose scratches |
